Source: US20260176279A1, “DUAL RAF AND TUBULIN INHIBITORS AND METHODS OF USE THEREOF” (Deciphera Pharmaceuticals, LLC, priority 2023, published 2026)
Like-named read-outs stand apart in the source and are kept apart here.

How the values were obtained:
HCT-116 cells = assay: HCT-116 Cell Proliferation Assay; format: cell-based; settings: Homo sapiens
Experimental: HCT-116 cells (catalog #CCL-247) are obtained from the American Type Culture Collect (ATCC, Manassas, VA). Briefly, cells are grown in McCoy's 5A supplemented with 10% characterized fetal bovine serum (Invitrogen, Carlsbad, CA) and 1% Penicillin/Streptomycin/L-Glutamine at 37° C., 5% CO2, and 95% humidity. Cells are expanded until reaching 70-95% confluency at which point they are sub-cultured or harvested for assay use. A serial dilution of test compound is dispensed into a 384-well black clear bottom plate in triplicate. 375 cells are added per well in 50 μL complete growth medium in the 384-well plate. Plates are incubated for 67 to 72 h at 37° C., 5% CO2, and 95% humidity. At the end of the incubation, 40 μL of a […] solution of resazurin (Sigma, St. Louis, MO) in PBS is added to each well of the plate and plates are incubated for an additional 4 to 5 hours at 37° C., 5% CO2, and 95% humidity. Plates are read on a Synergy2 or equivalent reader (Biotek, Winooski, VT) using an excitation of 540 nm and an emission of 600 nm. Data is analyzed using Prism software (Graphpad, San Diego, CA) to calculate IC50 values.

MiaPaca-2 cells = assay: MiaPaca-2 Cell Proliferation Assay; format: cell-based; settings: Homo sapiens, MIA PaCa-2
Experimental: MiaPaca-2 cells (catalog #CRL-1420) are obtained from the American Type Culture Collect (ATTC, Manassas, VA). Briefly, cells were grown in DMEM supplemented with 10% characterized fetal bovine serum (Invitrogen, Carlsbad, CA), 2.5% New Zealand sourced horse serum and 1% Penicillin/Streptomycin/L-Glutamine at 37° C., 5% CO2, and 95% humidity. Cells are expanded until reaching 70-95% confluency at which point they are sub-cultured or harvested for assay use. For assays completed in 96-well plates, a serial dilution of test compound is dispensed into a 96-well black clear bottom plate in triplicate. Three thousand cells are added per well in 200 μL complete growth medium in the 96-well plate. Plates are incubated for 67 to 72 h at 37° C., 5% CO2, and 95% humidity. At the end of the incubation, 40 μL of a […] solution of resazurin (Sigma, St. Louis, MO) in PBS is added to each well of the plate and plates are incubated for an additional 5 to 6 hours at 37° C., 5% CO2, and 95% humidity. For 384-well assays, a threefold, 8-point serial dilution of compound was spotted column wise into a 384 well black, clear bottom, tissue culture treated plate using the Beckman Coulter Echo 650. Likewise, a threefold, 8-point serial dilution of cobimetinib was spotted row wise into the 384 well black, clear bottom plate containing compound. DMSO concentration was constant across all wells at 0.4%. Seven hundred fifty cells are added per well in 50 μL complete growth medium in each 384-well plate. Plates are incubated for 67 to 72 h at 37° C., 5% CO2, and 95% humidity. At the end of the incubation, 10 μL of a 440 μM solution of resazurin (Sigma, St. Louis, MO) in PBS is added to each well of the plate and plates are incubated for an additional 4 to 6 h at 37° C., 5% CO2, and 95% humidity. Plates are read on a Synergy2 or equivalent reader (Biotek, Winooski VT) using an excitation of 540 nm and an emission of 600 nm. Data is analyzed using Prism software (Graphpad, San Diego, CA) to calculate IC50 values.

HPAF-II cells = assay: HPAF-II Cell Proliferation Assay; format: cell-based; settings: Homo sapiens
Experimental: HPAF-II cells (catalog #CRL-1997) are obtained from the American Type Culture Collect (ATCC, Manassas, VA). Briefly, cells are grown in Minimum Essential Media supplemented with 10% characterized fetal bovine serum (Invitrogen, Carlsbad, CA) and 1% Penicillin/Streptomycin/L-Glutamine at 37° C., 5% CO2, and 95% humidity. Cells are expanded until reaching 70-95% confluency at which point they are sub-cultured or harvested for assay use. A serial dilution of test compound is dispensed into a 384-well black clear bottom plate in triplicate. 750 cells are added per well in 50 μL complete growth medium in the 384-well plate. Plates are incubated for 115 to 120 h at 37° C., 5% CO2, and 95% humidity. At the end of the incubation, 40 μL of a […] solution of resazurin (Sigma, St. Louis, MO) in PBS is added to each well of the plate and plates are incubated for an additional 18 to 24 h at 37° C., 5% CO2, and 95% humidity. Plates are read on a Synergy2 or equivalent reader (Biotek, Winooski, VT) using an excitation of 540 nm and an emission of 600 nm. Data is analyzed using Prism software (Graphpad, San Diego, CA) to calculate IC50 values.

C-Raf kinase = target: T1, C-Raf kinase (Homo sapiens, UniProt P04049, Y340D/Y341D); assay: Biochemical Assay for C-Raf (coupled pyruvate kinase/lactate dehydrogenase assay)
T1 construct: C-Raf residues 306-end; Y340D, Y341D with N-; GST (N); purchased Eurofins

B-Raf kinase = target: T2, B-Raf kinase (Homo sapiens, UniProt P15056); assay: Biochemical Assay for B-Raf (coupled pyruvate kinase/lactate dehydrogenase assay)
T2 construct: GST (N); purchased Sigma

tubulin = assay: Cellular Tubulin Polymerization Assay (HCT-116 cells); format: cell-based; settings: read-out: Tubulin Cellular; Table 5, HCT-116 cells
[1] = HCT-116, Table 4, read-out: HCT-116 IC50
[2] = Table 4, read-out: MiaPaca-2 IC50
[3] = HPAF-II, Table 4, read-out: HPAF-II IC50
[4] = Table 1, inhibition of biochemical activity, read-out: CRAF
[5] = Table 2, inhibition of cell proliferation, read-out: HCT-116
[6] = Table 2, inhibition of cell proliferation, read-out: MiaPaca-2
[7] = Table 1, inhibition of biochemical activity, read-out: BRAF

T2 sequence (P15056 416-766): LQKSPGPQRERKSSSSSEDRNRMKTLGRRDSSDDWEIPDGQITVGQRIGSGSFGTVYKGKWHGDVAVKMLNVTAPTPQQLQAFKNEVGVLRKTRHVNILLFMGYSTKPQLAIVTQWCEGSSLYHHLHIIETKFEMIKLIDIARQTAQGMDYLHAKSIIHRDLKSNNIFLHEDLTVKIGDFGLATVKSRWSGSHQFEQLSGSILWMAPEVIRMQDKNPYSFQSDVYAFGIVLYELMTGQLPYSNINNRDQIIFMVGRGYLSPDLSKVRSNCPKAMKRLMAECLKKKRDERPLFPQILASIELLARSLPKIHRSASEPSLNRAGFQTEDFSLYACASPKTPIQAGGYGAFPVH
T1 sequence (P04049 307-648 Y340D/Y341D): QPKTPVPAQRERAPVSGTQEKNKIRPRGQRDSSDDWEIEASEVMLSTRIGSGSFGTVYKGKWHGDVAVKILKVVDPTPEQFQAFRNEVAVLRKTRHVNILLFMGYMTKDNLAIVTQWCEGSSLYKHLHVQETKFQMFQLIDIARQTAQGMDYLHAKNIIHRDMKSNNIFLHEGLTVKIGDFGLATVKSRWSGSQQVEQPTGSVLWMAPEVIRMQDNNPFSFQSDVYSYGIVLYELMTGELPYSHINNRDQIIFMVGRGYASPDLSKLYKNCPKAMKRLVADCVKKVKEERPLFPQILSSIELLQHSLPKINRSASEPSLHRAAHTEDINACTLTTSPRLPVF

Row | SMILES | IC50 (HCT-116 cells; [1]) | IC50 (HPAF-II cells; [3]) | IC50 (C-Raf kinase; [4]) | IC50 (HCT-116 cells; [5]) | IC50 (MiaPaca-2 cells; [6]) | IC50 (B-Raf kinase; [7]) | also measured
1 | Cc1ccc(NC(=O)NC2CCCCCC2)cc1-c1cc(OCCO)nc(N2CCOCC2)c1 [reference compound] | 1000 to 10000 nM | 1000 to 10000 nM | – | – | – | – | IC50 (MiaPaca-2 cells; [2]): 1000 to 10000 nM
2 | Cc1ccc2c(Nc3cccc(Cl)c3F)nccc2c1NC(=O)c1csc2c(N)ncnc12 [Belvarafenib, reference compound] | – | – | – | – | – | – | IC50 (HCT-116 cells; Table 5, read-out: HCT-116): 500 to 1000 nM; IC50 (MiaPaca-2 cells; Table 5, read-out: MiaPaca-2): 1000 to 10000 nM; IC50 (HPAF-II cells; Table 5, read-out: HPAF-II): 1000 to 10000 nM
3 | Cc1ccc(NC(=O)Nc2ccc(C(F)(F)F)nc2)cc1-c1cncc(-c2ccnc(NC(=O)CC#N)c2)n1 [Example 14] | – | – | < 100 nM | 1000 to 10000 nM | 1000 to 10000 nM | < 100 nM | –
4 | Cc1ccc(NC(=O)Nc2cccnc2)cc1-c1cc(OCCO)nc(N2CCOCC2)c1 [Example 28] | – | – | < 100 nM | 1000 to 10000 nM | 100 to 500 nM | 500 to 1000 nM | –
5 | Cc1ccc(NC(=O)N[C@@H]2CCc3ccccc32)cc1-c1cc(OCCO)nc(N2CCOCC2)c1 [reference compound] | 1000 to 10000 nM | 1000 to 10000 nM | – | – | – | – | IC50 (MiaPaca-2 cells; [2]): 1000 to 10000 nM
6 | COCC(=O)Nc1cc(-c2cncc(-c3cc(NC(=O)Nc4ccc(C(F)(F)F)nc4)ccc3C)n2)ccn1 [Example 13] | – | – | < 100 nM | 500 to 1000 nM | 500 to 1000 nM | < 100 nM | –
7 | Cc1ccc(NC(=O)Nc2cnc(C(F)(F)F)nc2)cc1-c1cc(OCCO)nc(N2CCOCC2)c1 [Example 24, 1-(3-(2-(2-hydroxyethoxy)-6-morpholinopyridin-4-yl)-4-methylphenyl)-3-(2-(trifluoromethyl)pyrimidin-5-yl)urea] | – | – | < 100 nM | – | < 100 nM | 100 to 500 nM | IC50 (C-Raf kinase; Table 3, read-out: CRAF IC50): 100 to 500 nM; IC50 (HCT-116 cells; HCT-116, Table 3, read-out: HCT-116 IC50): < 100 nM; IC50 (MiaPaca-2 cells; Table 3, read-out: MiaPaca-2 IC50): < 100 nM; IC50 (B-Raf kinase; Table 3, read-out: BRAF IC50): 100 to 500 nM
8 | C[C@@H](NC(=O)c1ncnc(N)c1Cl)c1ncc(C(=O)Nc2cc(C(F)(F)F)c(Cl)cn2)s1 [Tovorafenib, reference compound] | – | – | – | – | – | – | IC50 (tubulin): 1000 to 10000 nM
9 | CC(=O)Nc1cc(-c2cc(-c3cc(NC(=O)Nc4ccc(C(F)(F)F)nc4)ccc3C)nn(C)c2=O)ccn1 [Example 8] | – | – | 1000 to 10000 nM | 1000 to 10000 nM | 1000 to 10000 nM | 1000 to 10000 nM | –
10 | CC(=O)Nc1cc(-c2cc(-c3cc(NC(=O)NC4CCC(F)(F)CC4)c(F)cc3C)cc(OCCO)n2)ccn1 [reference compound] | 500 to 1000 nM | 500 to 1000 nM | – | – | – | – | –
11 | Cc1ccc(NC(=O)Nc2cn(C)nc2C(F)(F)F)cc1-c1cc(OCCO)nc(N2CCOCC2)c1 [reference compound] | 1000 to 10000 nM | 1000 to 10000 nM | – | – | – | – | IC50 (C-Raf kinase; Table 4, read-out: CRAF IC50): 1000 to 10000 nM; IC50 (B-Raf kinase; Table 4, read-out: BRAF IC50): 1000 to 10000 nM
12 | Cc1ccc(NC(=O)Nc2ccc(C(F)(F)F)nc2)cc1-c1cc(-c2ccnc(NC(=O)CN(C)C)c2)c(=O)n(C)c1 [Example 11] | – | – | 100 to 500 nM | 500 to 1000 nM | 500 to 1000 nM | 100 to 500 nM | –
13 | Cc1ccc(NC(=O)Nc2ccc(C(F)(F)F)nc2)cc1-c1cc(OCCO)nc(N2CCOCC2)c1 [Example 37] | – | – | < 100 nM | < 100 nM | < 100 nM | 100 to 500 nM | –
14 | Cc1ccc(NC(=O)Nc2cnn(CC(F)(F)F)c2)cc1-c1cc(OCCO)nc(N2CCOCC2)c1 [reference compound] | 1000 to 10000 nM | 1000 to 10000 nM | – | – | – | – | IC50 (B-Raf kinase; Table 4, read-out: BRAF IC50): 1000 to 10000 nM
15 | CNC(=O)c1cc(-c2cc(-c3cc(NC(=O)NC4CCCCC4)c(F)cc3C)cc(OCCO)n2)ccn1 [reference compound] | 1000 to 10000 nM | 1000 to 10000 nM | – | – | – | – | –
16 | CC(=O)Nc1cc(-c2cc(-c3cc(NC(=O)Nc4ccc(C(F)(F)F)nc4)cnc3C)ccn2)ccn1 [Example 6] | – | – | < 100 nM | 1000 to 10000 nM | 500 to 1000 nM | < 100 nM | –
17 | Cc1ccc(NC(=O)N2CC[C@@H](CC(F)(F)F)C2)cc1-c1cc(N[C@H](C)CO)nc(N2CCOCC2)c1 [Exarafenib, reference compound] | – | – | – | – | – | – | IC50 (tubulin): 1000 to 10000 nM
18 | CC(=O)Nc1cc(-c2cncc(-c3cc(NC(=O)Nc4ccc(C(F)(F)F)nc4)ccc3C)n2)ccn1 [Example 12] | – | – | < 100 nM | 100 to 500 nM | 100 to 500 nM | < 100 nM | –
19 | CNC(=O)c1cc(-c2cnnc(-c3cc(NC(=O)N4CCC(C(C)(C)C)C4)ccc3C)c2)ccn1 (stereo not drawn) [reference compound] | 1000 to 10000 nM | 1000 to 10000 nM | – | – | – | – | IC50 (MiaPaca-2 cells; [2]): 1000 to 10000 nM
20 | Cc1ccc(NC(=O)Nc2ccc(C(F)(F)F)nc2)cc1-c1cc(OC2CCNCC2)nc(N2CCOCC2)c1 [Example 25, 1-(4-methyl-3-(2-morpholino-6-(piperidin-4-yloxy)pyridin-4-yl)phenyl)-3-(6-(trifluoromethyl)pyridin-3-yl)urea] | – | – | < 100 nM | 500 to 1000 nM | 100 to 500 nM | 100 to 500 nM | –
21 | Cc1cc(F)c(NC(=O)Nc2cnn(C(C)(C)C)c2)cc1-c1cc(OCCN(C)C)nc(N2CCOCC2)c1 [reference compound] | 1000 to 10000 nM | 1000 to 10000 nM | – | – | – | – | IC50 (MiaPaca-2 cells; [2]): 1000 to 10000 nM
22 | CC(=O)Nc1cc(-c2cc(-c3cc(NC(=O)Nc4ccc(C(F)(F)F)nc4)ccc3C)cc(=O)n2C)ccn1 [Example 7] | – | – | < 100 nM | 1000 to 10000 nM | 1000 to 10000 nM | < 100 nM | –
